From PMC6256357 (Chemical Science, 2018)

Molecular target: sirtuin 2 (SIRT2) (Homo sapiens, UniProt Q8IXJ6)
Assay: trypsin-coupled fluorescence-based deacetylase assay
Format: biochemical

Sequence of sirtuin 2 (SIRT2) (Q8IXJ6 2-389): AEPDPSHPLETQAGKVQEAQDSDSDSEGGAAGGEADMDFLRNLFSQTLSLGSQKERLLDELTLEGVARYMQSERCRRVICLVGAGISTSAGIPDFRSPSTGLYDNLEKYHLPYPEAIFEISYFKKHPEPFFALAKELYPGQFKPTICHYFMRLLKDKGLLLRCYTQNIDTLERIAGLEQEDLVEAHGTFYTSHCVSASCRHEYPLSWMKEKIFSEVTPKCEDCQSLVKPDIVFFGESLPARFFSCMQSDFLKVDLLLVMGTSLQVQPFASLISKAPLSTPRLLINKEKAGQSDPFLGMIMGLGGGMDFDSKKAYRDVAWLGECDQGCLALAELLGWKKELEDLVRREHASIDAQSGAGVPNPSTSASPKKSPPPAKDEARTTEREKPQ

NC(=O)c1ccc[n+]([C@@H]2O[C@H](COP(=O)([O-])OP(=O)(O)OC[C@H]3O[C@@H](n4cnc5c(N)ncnc54)[C@H](O)[C@@H]3O)[C@@H](O)[C@H]2O)c1 [NAD^+]
trypsin-coupled fluorescence-based deacetylase assay: in contrast to NAD^+ that could participate in SIRT2-catalyzed protein deacetylation
